The results in this text go back to PMC5324105 (2017).

The subject of assay [1] is 12Rd-5 (RNA, aptamer) GGGACACAAUGGACGAUCAUAUAACGAUAGCACUGGCGUAGGGAGACUACGUGUCCGUGUGUACCUAACGGCCGACAUGAGAG
Nature of the assay: phosphorescence titration. The settings on record: 100 mM NaCl, 5 mM MgCl2; 20 mM HEPES pH 7.0; 1 μM compound, RNA 1 to 10 μM.

Assay [2] has as its system Ru(bpy)3^2+ aptamer (Δ 25@3', Δ 5@5'; 53 nt) (RNA, aptamer) GGGAUGGACGAUCAUAUAACGAUAGCACUGGCGUAGGGAGACUACGUGUCCGU
Nature of the assay: phosphorescence titration. The settings on record: 100 mM NaCl, 5 mM MgCl2; 20 mM HEPES pH 7.0; 1 μM compound, RNA 1 to 10 μM.

The test system is the same in assay [3]. Put plainly: ITC. As to conditions: Na+ (phosphate-buffered saline, concentration not stated); PBS (Takara T900); 5 μM aptamer in cell, 50 μM compound in syringe.
The test system of assay [4] is Δ 25@3' (RNA, aptamer) GGGACACAAUGGACGAUCAUAUAACGAUAGCACUGGCGUAGGGAGACUACGUGUCCGU
Put plainly: phosphorescence titration. The settings on record: 100 mM NaCl, 5 mM MgCl2; 20 mM HEPES pH 7.0; 1 μM compound, RNA 1 to 10 μM.

The test system of assay [5] is Δ Hairpin loop2 (RNA, aptamer) GGGAUGGACGAUCAUAUAACGAUAGCACUGGUGUCCGU
Put plainly: phosphorescence titration. The settings on record: 100 mM NaCl, 5 mM MgCl2; 20 mM HEPES pH 7.0; 1 μM compound, RNA up to 10 μM.

Assay [6] has as its system 2'-F aptamer (RNA, aptamer, 2'-F RNA (DuraScribe T7 transcription; modified positions not stated)) GGGAUGGACGAUCAUAUAACGAUAGCACUGGCGUAGGGAGACUACGUGUCCGU
Nature of the assay: phosphorescence titration. The settings on record: 100 mM NaCl, 5 mM MgCl2; 20 mM HEPES pH 7.0; 1 μM compound, RNA up to 10 μM.

Assay [7] relates to 12Rd-1 (RNA, aptamer) GGGACACAAUGGACGGUACGUAUUGCGUGGGACCCCGCGCAAUGAACUGGCCGAGGGAGACUCGGUAACGGCCGACAUGAGAG
Put plainly: phosphorescence titration. The settings on record: 100 mM NaCl, 5 mM MgCl2; 20 mM HEPES pH 7.0; 1 μM compound, RNA 1 to 10 μM.

Assay [8] concerns Δ 31@3 (RNA, aptamer) GGGACACAAUGGACGAUCAUAUAACGAUAGCACUGGCGUAGGGAGACUACGU
Put plainly: phosphorescence titration. The settings on record: 100 mM NaCl, 5 mM MgCl2; 20 mM HEPES pH 7.0; 1 μM compound, RNA up to 10 μM.

The test system of assay [9] is Δ 15@3' (RNA, aptamer) GGGACACAAUGGACGAUCAUAUAACGAUAGCACUGGCGUAGGGAGACUACGUGUCCGUGUGUACCUAA
Put plainly: phosphorescence titration. The settings on record: 100 mM NaCl, 5 mM MgCl2; 20 mM HEPES pH 7.0; 1 μM compound, RNA 1 to 10 μM.

Assay [10] has as its system 12Rd-4 (RNA, aptamer) GGGACACAAUGGACGGGCACAAGGUCCCACCAUCUCAGACGAGAAAGGAUACGCAGAUCGGCGAAUAACGGCCGACAUGAGAG
Put plainly: phosphorescence titration. The settings on record: 100 mM NaCl, 5 mM MgCl2; 20 mM HEPES pH 7.0; 1 μM compound, RNA up to 10 μM.

Assay [11] relates to Δ Loop2 (RNA, aptamer) GGGAUGGACGAUCAUAUAACGAUAGCGUAGGGAGACUACGUGUCCGU
Put plainly: phosphorescence titration. As to conditions: 100 mM NaCl, 5 mM MgCl2; 20 mM HEPES pH 7.0; 1 μM compound, RNA up to 10 μM.

Assay [12] has as its system 12Rd-2 (RNA, aptamer) GGGACACAAUGGACGGCAGAUCUGAGAGGGGAAGACCCUUUGUUAUUAACGAACUUGCGGUAUGAUAACGGCCGACAUGAGAG
Put plainly: phosphorescence titration. The settings on record: 100 mM NaCl, 5 mM MgCl2; 20 mM HEPES pH 7.0; 1 μM compound, RNA 1 to 10 μM.

The test system of assay [13] is Δ Hairpin loop1 (RNA, aptamer) GGGAUGGACGAUAGCACUGGCGUAGGGAGACUACGUGUCCGU
Put plainly: phosphorescence titration. The settings on record: 100 mM NaCl, 5 mM MgCl2; 20 mM HEPES pH 7.0; 1 μM compound, RNA up to 10 μM.

Assay [14] deals with 12Rd-3 (RNA, aptamer) GGGACACAAUGGACGUGGGGCUACAGACCAUCCGUUCUAUCCCGAGCACCGGGCCAAUCUCAAGUUAACGGCCGACAUGAGAG
Nature of the assay: phosphorescence titration. As to conditions: 100 mM NaCl, 5 mM MgCl2; 20 mM HEPES pH 7.0; 1 μM compound, RNA up to 10 μM.

SMILES strings stand for the structures.

Take `[Ru+2].c1ccc(-c2ccccn2)nc1.c1ccc(-c2ccccn2)nc1.c1ccc(-c2ccccn2)nc1`: the Kd in [1] was 118 ± 90 nM; in assay [3] it was 65 nM; in assay [7], 1600 nM; in [12] it was 1000 nM. Besides, the binding result is “yes” in assay [2]; “no” in [3]; “yes” in assay [4]; “no” in [5]; “no” in assay [6]; “no” in [8]. The binding result is reported as “yes” in [9]; “no” in assay [10]; “no” in [11]; “no” in assay [13]; “no” in assay [14].
